In this experiment the target is human Factor IXa (Homo sapiens (Human), UniProt P00740). Nature of the experiment: Factor IXa enzyme assay (SPECTROFLUOR FIXa fluorogenic substrate). The conditions noted are these: human Factor IXa 2.0 μg/ml, SPECTROFLUOR FIXa 100 μM, 60 minutes at room temperature, pH 8.0. In kind it is biochemical. As to the method:
Inhibitory activity against Factor IXa was tested using the substrate SPECTROFLUOR FIXa (American Diagnostica Inc.; 500 West Avenue, Stamford, Conn. 06902 USA; Pr. No. 299F) and human Factor IXa (American Diagnostica Inc.; Pr. No. 449b). Test substances dissolved in buffer A (50 mM α,α,α-tris(hydroxymethyl)methylamine (Tris), 100 mM NaCl, 5 mM CaCl2, 15% (v/v) ethylene glycol, pH 8.0) were mixed with Factor IXa (2.0 μg/ml final concentration). The enzyme reaction was started by addition of SPECTROFLUOR FIXa (100 μM final concentration). After incubation for 60 minutes at room temperature, the reaction was stopped by the addition of 20% (v/v) acetic acid solution, and then fluorescence value measured (Excitation Wavelength: 355 nm, Emission Wavelength; 460 nm) in a microtiter plate reader (ARVO 1420 Multilabel Counter; PerkinElmer).
IC50 was calculated from a dilution series of the test substance with the aid of the software, Symix Assay Explorer (Symyx Technologies, Inc.).

The structures appear in SMILES notation.

human Factor IXa, sequence (P00740 227-461): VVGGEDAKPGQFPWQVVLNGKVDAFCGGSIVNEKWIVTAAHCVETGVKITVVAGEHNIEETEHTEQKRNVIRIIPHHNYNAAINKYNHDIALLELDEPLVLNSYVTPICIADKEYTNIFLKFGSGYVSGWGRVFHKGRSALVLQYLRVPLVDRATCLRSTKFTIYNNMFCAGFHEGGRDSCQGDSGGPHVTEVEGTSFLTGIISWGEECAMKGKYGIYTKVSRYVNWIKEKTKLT
human Factor IXa, sequence (P00740 47-191 partner): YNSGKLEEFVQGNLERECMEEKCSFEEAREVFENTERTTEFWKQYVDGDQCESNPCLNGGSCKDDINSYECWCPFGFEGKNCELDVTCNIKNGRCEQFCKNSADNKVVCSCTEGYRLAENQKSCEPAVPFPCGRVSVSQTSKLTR

Consider `CC(C)(C)c1ccc(-n2cccc(C(O)C(=O)Nc3ccc4c(N)noc4c3)c2=O)cc1` (racemic) [Example 5, (±)-N-(3-aminobenzo[d]isoxazol-6-yl)-2-(1-(4-tert-butylphenyl)-2-oxo-1,2-dihydropyridin-3-yl)-2-hydroxyacetamide], for which half-maximal inhibition (IC50) required 1 µM.

Consider `CC(C)(C)c1ccc(-n2cccc(C(O)C(=O)Nc3ccc4c(N)nccc4c3)c2=O)cc1` (racemic) [Example 6, (±)-N-(1-aminoisoquinolin-6-yl)-2-(1-(4-tert-butylphenyl)-2-oxo-1,2-dihydropyridin-3-yl)-2-hydroxyacetamide], for which it took 0.054 µM to reach half-maximal inhibition (IC50).

Values taken from patent publication US8980916B2, “Factor IXa inhibitors” (Merck Sharp & Dohme Corp., priority 2011, dated 2015).
